From US12595222B2, “Curcuminoids, analogs thereof, and methods of making the same” (WiSys Technology Foundation, Inc., priority 2021, dated 2026)

Tested on: Epstein-Barr virus (EBV)
Test: EBV reactivation (viral BZLF1 gene expression) inhibition
Assay type: cell-based
Conditions: 3 mM; compared to low expression in unactivated cells
Protocol: FIG. 20B illustrates EBV reactivation in the presence of the curcuminoids shown in FIG. 28A, measured by increased viral BZLF1 gene expression, is induced with a known reactivating drug, sodium butyrate (3 mM) compared to low expression in unactivated cells, in accordance with various embodiments. EBV reactivation was inhibited by five novel curcuminoids (10 μM).

CCCC(=O)[O-].[Na+] [sodium butyrate]
EBV reactivation, measured by increased viral BZLF1 gene expression: induced
